Test results from patent publication US20060128792A1, “Deguelin as a chemopreventive agent for lung cancer” (priority 2002, published 2006).
Several values for one entry are separate records, joined by “and”; a condition that tells them apart may be missing. Identical values can stand only once.

Tests used:
Type in all cases: cell-based
1799 cells = test: Apoptosis assay (TUNEL, APO-BRDU kit, flow cytometry; DNA fragmentation); conditions: for apoptosis in 1799 cells (TUNEL, flow cytometry): 3 days
Experimental: (§1) Apoptosis assay. Normal, premalignant, and malignant HBE cells were exposed to v various doses of deguelin for 3 days. […] Both adherent and floating cells were combined for the assessment of apoptosis using the APO-BRDU staining kit (Phoenix Flow Systems, San Diego, Calif.). Briefly, floating and attached cells dispersed with trypsin-EDTA were pelleted, washed, and fixed by 1% paraformaldehyde followed by 70% ethanol. The fixed cells were washed and incubated with DNA-labeling solution containing terminal deoxynucleotidyl transferase (TdT) reaction buffer, TdT enzyme, and bromodeoxyuridine triphosphate (Br-dUTP). Cells were rinsed, resuspended with fluorescein-PRB-I antibody solution, and analyzed by flow cytometry in the presence of PI/RNase solution. All analyses were performed based on 3000 to 10,000 events using a FACScan flow cytometer (Becton Dickinson, San Jose, Calif.) equipped with a 488-nm argon ion laser and CellQuest software. A dual display of DNA area (linear red fluorescence) and Br-dUTP incorporation (FITC-PRB-1) was used to determine the percentage of apoptotic cells.
The percentage of dead cells was determined by fluorescent-activated cell sorting (FACS) analysis of PI-stained nuclei. Apoptosis was also determined by the detection of nucleosomal DNA fragmentation, which was measured using the TACS apoptotic DNA Jaddering kit (Trevigen, Inc., Gaithersburg, Md.) according to the manufacturer's protocol. […] Apoptosis was analyzed using the APO-BRDU staining kit (Phoenix Flow Systems) as described above.

HUVEC cells = test: HUVEC proliferation, MTT assay; conditions: 0.1, 1 and 10 μM, 3 days
Experimental: FIGS. 9A-9D.—Anti-angiogenic activity of deguelin. (FIG. 9A) CAMs after incubation with Thermanox coverslips containing vehicle (Con), deguelin ([…]) or RA (1 μg) as a positive control or for 48 h (circle indicate the placement of coverslip). (FIG. 9B) The anti-angiogenic effect of deguelin was evaluated by calculating the percentage of positive eggs. □ empty coverslip as control; ▪ RA 1 μg/egg; ▪ deguelin 1 or 5 nmole/egg. Each value represents the mean±SE. (FIG. 9C) Appearance of matrigel from mice. The effects of deguelin on bFGF-induced angiogenesis in vivo was analyzed by matrigel plug assay using nude mouse. Matrigel alone (Con)—negative control, 100 ng/ml bFGF and 72 units/ml heparin in a vehicle of 0.1% BSA/PBS (bFGF)—positive control, 5 niole deguelin alone, and 5 nmole deguelin plus bFGF were included. (FIG. 9D) Proliferation of HUVEC cells treated with indicated doses of deguelin for 3 days was analyzed by MTT assay. Bars, means±SD of a representative experiment done in triplicate from five independently performed experiments for each cell line.
Inhibition of angiogenesis by deguelin was also evaluated using the Matrigel™ plug assay, an established in vivo angiogenesis model, using nude mice. […]

[1] = tested on: caspase-3, PARP, Bax, Bcl-2, Bcl-xL in 1799 cells; test: Western blot of caspase-3, PARP and Bcl family proteins
Experimental: Immunoblotting. Whole cell lysates were prepared in lysis buffer (50 mM N-[2-hydroxymethyl]-piperazine-N′-[2-ethanesulfonic acid] [HEPES; pH 7.5], 150 mM NaCl, 1.5 mM MgCl2, ImM EDTA, 0.2 mM EGTA, 1% NP40, 10% glycerol, 1 mM dithiothreitol (DTT), 1 mM phenylmethylsulfonyl fluoride, 20 mM sodium fluoride, 5 mM sodium orthovanadate, 10 μg/ml aprotinin, 10 μg/ml leupeptin, 2 μg/ml pepstatin, and 1 mM benzamidine) as described previously (Lee et al., 2002). Equivalent protein concentrations were resolved in sodium dodecyl sulfate-polyacrylamide gels and transferred to a nitrocellulose membrane. After the blocking of transblotted membrane in Tris-buffered saline (TBS) containing 0.05% Tween 20 (TBST) and 5% low fat milk, themembrane was incubated with primary antibody at the appropriate dilution in TBS-5% low-fat milk at 4° C. for 16 h and washed with TBST. The immunoblots were visualized using the ECL kit (Amersham, Inc., Arlington Heights, III) according to the manufacturer's directions. Rabbit polyclonal antibodies against human pAkt (Ser473), Akt, and pGSK-3β (Ser9), and mouse monoclonal antibody against human anti-pMAPK (Thr202/Tyr204) were purchased from Cell Signalinng Technology (Beverly, Mass.). Rabbit polyclonal anti-glycogen synthase (GSK)-3 α/β (BD Transduction Laboratories, Lexington, Ky.), rabbit polyclonal anti-Bax and anti-caspase-3 antibodies (Pharmingen, San Diego, Calif.), rabbit polyclonal anti-Bcl2 and rabbit polyclonal anti-poly (ADP-ribose) polymerase O?ARP) antibody (VIC 5) (Roche Molecular Biochemicals, Indianapolis, Ind.), goat antibodies against Erk-1, Erk-2, and β-Actin (Santa Cruz Biotechnology, Inc., Santa Cruz, Calif.) were used for western blot analysis.

H226Br = test: MTT assay, growth inhibition by deguelin or deguelin derivatives; conditions: 3 days
[2] = tested on: H1299 and squamous HBE cells; test: Apoptosis by flow cytometry (FACS); conditions: 10^−7 M deguelin, by day 2 or day 3
Experimental: as §1, with “All analyses were performed based on 3000 to 10,000 events using a FACScan flow cytometer (Becton Dickinson, San Jose, Calif.) equipped with a 488-nm argon ion laser and CellQuest software.” left out
The apoptotic effect of deguelin was further assessed in HBE cells. […] Apoptosis was analyzed by flow cytometry as described above. […] To confirm the apoptotic activity in these cells, bax and bcl-2 expression were analyzed by western blotting. […] Thus, it was determined that deguelin increases bax expression thereby inducing the apoptotic activity in lung cancer cells.

For COc1cc2c(cc1OC)[C@@H]1C(=O)c3ccc4c(c3O[C@@H]1CO2)C=CC(C)(C)O4 [Deguelin], the “induction of apoptosis, Ad5CMV-Myr.Akt.HA-infected 1799 cells” value (1799 cells; 10^−7 M deguelin, 2 days) was “less than 10%”, the “induction of apoptosis, uninfected or empty virus-infected 1799 cells” value (1799 cells; 10^−7 M deguelin, 2 days) was “About 40%” and the “apoptosis in 1799 cells (TUNEL, flow cytometry)” value (1799 cells; 10^−7 M deguelin) was “more than 90%”. The “apoptosis in 1799 cells (TUNEL, flow cytometry)” value (1799 cells; 10^−8 M deguelin) was 68.5%, the “DNA fragmentation in 1799 cells” value (1799 cells; three days of treatment, dose-dependent) was “induced the generation of nucleosomal-sized ladders of DNA fragments” and the “proliferation of HUVEC cells” value (HUVEC cells) was “Inhibition of cell proliferation was observed”. For the same compound, the Bcl-2 expression [1] was “mild decrease”, the Bcl-xL level [1] was “not affected” and the “level of Bax” value [1] was “dose-dependent increase”. The “32-kDa caspase-3 proenzyme (with increase of 89-kDa PARP fragment)” value ([1]; more than 10^−8 M deguelin, 3 days) was “significant decrease”, the Av. % con (H226Br; deguelin 10^−6M) was 0.82 % con and the “MTT value, mean of replicates (unheaded line)” value (“MTT value, mean of replicates” for short) (H226Br; deguelin 10^−6M) was 0.266. For the same compound, the “MTT value, replicate (unheaded line)” value (H226Br; deguelin 10^−6M) was 0.264 (2×) and 0.271, the Av. % con (H226Br; deguelin 10^−8M) was 0.85 % con and the “MTT value, mean of replicates” value (H226Br; deguelin 10^−8M) was 0.276. For the same compound, the “MTT value, replicate (unheaded line)” value (H226Br; deguelin 10^−8M) was 0.296 and 0.273 and 0.259, the Av. % con (H226Br; deguelin 10^−10M) was 1.02 % con and the “MTT value, mean of replicates” value (H226Br; deguelin 10^−10M) was 0.330. For the same compound, the “MTT value, replicate (unheaded line)” value (H226Br; deguelin 10^−10M) was 0.321 and 0.329 and 0.34, the Av. % con (H226Br; deguelin 10^−12M) was 0.96 % con and the “MTT value, mean of replicates” value (H226Br; deguelin 10^−12M) was 0.310. For the same compound, the “MTT value, replicate (unheaded line)” value (H226Br; deguelin 10^−12M) was 0.3 and 0.318 and 0.313 and the “apoptosis (flow cytometry)” value [2] was at least 60%.
